Test results taken from ChEMBL document CHEMBL1201862, “PubChem BioAssay data set” (2004).
Activity calls are given as the source filed them.

Tests used:
[1] = biological target: Nucleotide-binding oligomerization domain-containing protein 2 (Homo sapiens, UniProt Q9HC29); experiment: PubChem AID 2334; format: functional
Tumor necrosis factor = Tumor necrosis factor (Homo sapiens, UniProt P01375); experiment: analog potency on TNFa NF-kB signaling – cell-based, revised, SAR follow-up (AID 2337); format: functional
Chain of Tumor necrosis factor (P01375 whole entry, the tested form may be a part): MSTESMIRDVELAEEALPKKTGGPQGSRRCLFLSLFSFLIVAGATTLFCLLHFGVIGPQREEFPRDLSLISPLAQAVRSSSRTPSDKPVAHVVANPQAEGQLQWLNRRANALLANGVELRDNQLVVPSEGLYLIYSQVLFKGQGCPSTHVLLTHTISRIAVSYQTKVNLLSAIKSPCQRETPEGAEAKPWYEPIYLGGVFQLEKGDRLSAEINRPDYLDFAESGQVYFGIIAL

[2] = biological target: T1, Nucleotide-binding oligomerization domain-containing protein 1 (Homo sapiens, UniProt Q9Y239); experiment: blockers of NOD1 pathway activity – revised, SAR follow-up (AID 2333); format: functional
T1 sequence (Q9Y239 whole entry): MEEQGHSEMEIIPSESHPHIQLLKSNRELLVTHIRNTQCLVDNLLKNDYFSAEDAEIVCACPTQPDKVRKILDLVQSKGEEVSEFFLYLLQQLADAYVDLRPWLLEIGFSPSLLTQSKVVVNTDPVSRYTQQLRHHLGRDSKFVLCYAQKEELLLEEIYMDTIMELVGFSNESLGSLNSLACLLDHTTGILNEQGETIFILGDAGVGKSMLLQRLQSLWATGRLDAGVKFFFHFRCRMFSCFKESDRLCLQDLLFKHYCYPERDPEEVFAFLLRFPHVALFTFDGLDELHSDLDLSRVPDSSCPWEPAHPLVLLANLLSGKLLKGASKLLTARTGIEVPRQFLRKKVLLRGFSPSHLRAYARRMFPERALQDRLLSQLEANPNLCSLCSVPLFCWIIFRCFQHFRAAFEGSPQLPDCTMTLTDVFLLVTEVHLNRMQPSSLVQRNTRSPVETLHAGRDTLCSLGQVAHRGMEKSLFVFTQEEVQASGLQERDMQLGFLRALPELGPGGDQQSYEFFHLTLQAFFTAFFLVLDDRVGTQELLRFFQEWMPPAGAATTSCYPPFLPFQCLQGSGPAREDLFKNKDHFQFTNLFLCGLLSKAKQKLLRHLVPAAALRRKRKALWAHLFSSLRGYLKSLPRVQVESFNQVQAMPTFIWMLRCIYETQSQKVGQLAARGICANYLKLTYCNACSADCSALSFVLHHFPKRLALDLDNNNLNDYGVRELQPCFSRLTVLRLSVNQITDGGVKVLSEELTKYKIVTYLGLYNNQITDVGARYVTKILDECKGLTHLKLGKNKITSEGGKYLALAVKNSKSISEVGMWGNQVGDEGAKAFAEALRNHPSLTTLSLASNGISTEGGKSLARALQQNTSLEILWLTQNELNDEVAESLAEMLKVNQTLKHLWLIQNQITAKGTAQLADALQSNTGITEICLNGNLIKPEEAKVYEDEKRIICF

HEK293 = experiment: cells; conditions: Homo sapiens;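 also: cells exposed to compound for 14 hours overnight before viability readout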
[3] = biological target: Intestinal-type alkaline phosphatase (Homo sapiens, UniProt P09923); experiment: human intestinal alkaline phosphatase activators, dose response, biochemical, luminescence, uHTS hits (AID 463120); format: functional
Chain of Intestinal-type alkaline phosphatase (P09923 whole entry): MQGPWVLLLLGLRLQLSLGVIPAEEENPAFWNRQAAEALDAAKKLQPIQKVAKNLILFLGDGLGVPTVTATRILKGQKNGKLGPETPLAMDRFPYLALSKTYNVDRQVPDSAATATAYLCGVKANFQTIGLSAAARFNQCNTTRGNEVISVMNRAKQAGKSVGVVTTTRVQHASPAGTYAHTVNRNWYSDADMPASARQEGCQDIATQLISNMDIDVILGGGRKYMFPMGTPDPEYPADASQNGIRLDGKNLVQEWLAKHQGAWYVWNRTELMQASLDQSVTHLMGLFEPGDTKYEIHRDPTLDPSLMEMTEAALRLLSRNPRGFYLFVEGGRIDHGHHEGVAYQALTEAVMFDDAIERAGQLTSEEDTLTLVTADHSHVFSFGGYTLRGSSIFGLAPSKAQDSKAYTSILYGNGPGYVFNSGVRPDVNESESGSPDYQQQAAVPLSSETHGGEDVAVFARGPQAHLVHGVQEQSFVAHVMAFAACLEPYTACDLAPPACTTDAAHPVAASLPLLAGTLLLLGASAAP

Nonstructural protein 1 = Nonstructural protein 1 (Influenza A virus, UniProt Q194T2); format: functional, Influenza A virus (A/California/07/2009(H1N1))
Aminopeptidase N = biological target: T2, Aminopeptidase N (Plasmodium falciparum FcB1/Columbia, UniProt O96935); experiment: malaria alanyl aminopeptidase activity blockers – biochemical, fluorogenic H-Leu-NHMec substrate, 1536-well (AID 1445); set-up: species or system Plasmodium falciparum 3D7, 3D7
T2 sequence (O96935 whole entry): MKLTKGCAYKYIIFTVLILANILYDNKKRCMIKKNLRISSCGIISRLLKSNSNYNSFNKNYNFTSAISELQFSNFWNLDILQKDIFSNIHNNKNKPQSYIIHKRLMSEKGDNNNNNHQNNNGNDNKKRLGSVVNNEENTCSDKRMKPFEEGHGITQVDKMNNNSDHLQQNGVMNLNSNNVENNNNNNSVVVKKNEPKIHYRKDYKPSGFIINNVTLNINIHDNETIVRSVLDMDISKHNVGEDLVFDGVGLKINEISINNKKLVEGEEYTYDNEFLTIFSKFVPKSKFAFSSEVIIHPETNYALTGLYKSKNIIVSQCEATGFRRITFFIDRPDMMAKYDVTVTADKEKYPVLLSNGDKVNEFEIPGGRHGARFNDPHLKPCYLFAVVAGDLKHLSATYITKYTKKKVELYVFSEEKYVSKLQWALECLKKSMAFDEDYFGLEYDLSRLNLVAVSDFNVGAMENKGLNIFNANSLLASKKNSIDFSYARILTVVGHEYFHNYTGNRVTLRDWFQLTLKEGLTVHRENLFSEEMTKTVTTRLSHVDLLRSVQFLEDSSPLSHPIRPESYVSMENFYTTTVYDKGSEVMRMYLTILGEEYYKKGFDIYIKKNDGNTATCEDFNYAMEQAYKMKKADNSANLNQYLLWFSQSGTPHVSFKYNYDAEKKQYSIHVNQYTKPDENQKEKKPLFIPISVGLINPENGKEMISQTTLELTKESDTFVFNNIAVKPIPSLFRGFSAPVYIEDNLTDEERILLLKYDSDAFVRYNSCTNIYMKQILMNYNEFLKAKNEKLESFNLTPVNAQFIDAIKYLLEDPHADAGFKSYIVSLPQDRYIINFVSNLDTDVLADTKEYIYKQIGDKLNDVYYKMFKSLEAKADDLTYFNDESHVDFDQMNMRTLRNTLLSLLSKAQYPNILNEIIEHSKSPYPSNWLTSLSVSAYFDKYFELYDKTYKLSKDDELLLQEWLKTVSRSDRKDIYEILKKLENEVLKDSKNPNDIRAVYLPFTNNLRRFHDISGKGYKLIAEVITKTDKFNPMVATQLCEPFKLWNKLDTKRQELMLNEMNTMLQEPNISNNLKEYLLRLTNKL

[4] = THP-1 cell cytotoxicity, dose response, cytotoxicity control for non-replicating M. tuberculosis project (AID 489025); format: functional
cells = format: functional
[5] = Vero E6 cell cytotoxicity, dose response, cytotoxicity control for non-replicating M. tuberculosis project, secondary assay (AID 492998); format: functional, VeroE6; conditions: Vero C1008
[6] = HepG2 cell cytotoxicity, dose response, cytotoxicity control for non-replicating M. tuberculosis project (AID 489018); format: functional; conditions: Mycobacterium tuberculosis
CAAX prenyl protease 2 = biological target: T3, CAAX prenyl protease 2 (Saccharomyces cerevisiae S288c, UniProt Q03530); format: biochemical
T3 sequence (Q03530 whole entry): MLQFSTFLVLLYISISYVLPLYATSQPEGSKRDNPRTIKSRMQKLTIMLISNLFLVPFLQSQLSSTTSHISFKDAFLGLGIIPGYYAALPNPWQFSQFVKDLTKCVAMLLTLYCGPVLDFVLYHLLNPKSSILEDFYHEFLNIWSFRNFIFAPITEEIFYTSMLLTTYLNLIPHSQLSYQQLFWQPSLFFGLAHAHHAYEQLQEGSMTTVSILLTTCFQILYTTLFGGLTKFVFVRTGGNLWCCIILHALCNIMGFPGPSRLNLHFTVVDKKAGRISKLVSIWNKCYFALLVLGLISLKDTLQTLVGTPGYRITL

[7] = biological target: Peroxisome proliferator-activated receptor gamma/Nuclear receptor coactivator 1 (Homo sapiens, UniProt P37231); experiment: (§1) TR-FRET dose response biochemical High Throughput Screening assay for agonists of the steroid receptor coactivator 1 (SRC-1) recruitment by the peroxisome proliferator-activated receptor gamma (PPAR gamma): non-selective agonists. [Related pubchem assays (depositor defined):AID1300, AID1808, AID504735, AID631]; format: protein assay
Chain of Peroxisome proliferator-activated receptor gamma/Nuclear receptor coactivator 1 (P37231 whole entry): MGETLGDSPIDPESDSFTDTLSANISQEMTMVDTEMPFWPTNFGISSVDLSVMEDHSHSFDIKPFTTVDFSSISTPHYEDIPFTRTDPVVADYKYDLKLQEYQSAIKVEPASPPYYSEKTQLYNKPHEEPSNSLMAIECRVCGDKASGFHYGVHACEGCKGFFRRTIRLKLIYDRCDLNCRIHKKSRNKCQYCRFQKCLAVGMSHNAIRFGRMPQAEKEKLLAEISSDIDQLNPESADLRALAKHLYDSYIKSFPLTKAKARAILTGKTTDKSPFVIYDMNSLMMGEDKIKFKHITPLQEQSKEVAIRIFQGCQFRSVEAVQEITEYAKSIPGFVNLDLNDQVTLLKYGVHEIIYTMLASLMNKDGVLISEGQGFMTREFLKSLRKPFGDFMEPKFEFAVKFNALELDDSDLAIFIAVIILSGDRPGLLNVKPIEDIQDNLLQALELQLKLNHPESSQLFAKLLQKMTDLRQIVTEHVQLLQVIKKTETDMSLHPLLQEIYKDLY
Chain of Peroxisome proliferator-activated receptor gamma/Nuclear receptor coactivator 1 (Q15788 whole entry, further chain): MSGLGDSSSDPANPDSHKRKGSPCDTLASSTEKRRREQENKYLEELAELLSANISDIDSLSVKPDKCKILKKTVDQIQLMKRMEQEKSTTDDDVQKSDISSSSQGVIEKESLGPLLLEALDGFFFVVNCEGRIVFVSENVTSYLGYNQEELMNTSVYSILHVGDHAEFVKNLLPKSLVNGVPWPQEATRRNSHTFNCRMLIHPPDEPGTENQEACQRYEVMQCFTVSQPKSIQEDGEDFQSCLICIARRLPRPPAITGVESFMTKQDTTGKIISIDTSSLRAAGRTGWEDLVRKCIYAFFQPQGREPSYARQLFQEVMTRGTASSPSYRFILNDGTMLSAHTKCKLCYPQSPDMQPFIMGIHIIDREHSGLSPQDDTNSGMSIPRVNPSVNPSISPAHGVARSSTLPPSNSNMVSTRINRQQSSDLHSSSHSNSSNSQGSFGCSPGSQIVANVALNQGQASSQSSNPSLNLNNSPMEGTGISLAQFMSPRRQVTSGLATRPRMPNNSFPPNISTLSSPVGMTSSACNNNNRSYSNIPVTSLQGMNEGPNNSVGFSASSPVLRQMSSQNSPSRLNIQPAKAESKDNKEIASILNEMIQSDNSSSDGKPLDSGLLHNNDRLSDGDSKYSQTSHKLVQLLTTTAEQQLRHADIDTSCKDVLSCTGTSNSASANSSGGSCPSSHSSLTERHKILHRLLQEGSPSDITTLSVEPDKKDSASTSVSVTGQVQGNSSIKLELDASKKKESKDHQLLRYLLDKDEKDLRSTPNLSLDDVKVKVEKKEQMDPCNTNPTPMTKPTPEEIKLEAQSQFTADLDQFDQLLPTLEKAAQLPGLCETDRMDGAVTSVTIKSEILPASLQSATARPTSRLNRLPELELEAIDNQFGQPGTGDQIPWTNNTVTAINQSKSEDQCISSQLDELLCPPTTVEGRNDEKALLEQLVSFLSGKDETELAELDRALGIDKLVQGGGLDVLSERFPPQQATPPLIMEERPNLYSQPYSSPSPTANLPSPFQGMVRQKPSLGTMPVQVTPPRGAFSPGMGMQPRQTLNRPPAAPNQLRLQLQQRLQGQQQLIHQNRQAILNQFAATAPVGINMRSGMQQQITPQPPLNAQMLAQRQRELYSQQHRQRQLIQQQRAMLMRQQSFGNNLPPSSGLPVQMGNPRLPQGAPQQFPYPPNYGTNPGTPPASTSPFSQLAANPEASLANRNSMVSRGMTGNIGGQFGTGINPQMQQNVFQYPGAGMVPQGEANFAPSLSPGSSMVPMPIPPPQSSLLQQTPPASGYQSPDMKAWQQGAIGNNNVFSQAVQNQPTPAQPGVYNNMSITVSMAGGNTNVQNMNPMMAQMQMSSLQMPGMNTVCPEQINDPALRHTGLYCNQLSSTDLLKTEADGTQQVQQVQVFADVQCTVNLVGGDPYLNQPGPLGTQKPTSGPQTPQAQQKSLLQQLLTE

[8] = viability of uninfected HEp-2 cells – cell-based, HTS, cytotoxicity control for RSV inhibitor project, dose response (AID 2410); format: functional; conditions: human respiratory syncytial virus
[9] = biological target: Peroxisome proliferator-activated receptor gamma/Nuclear receptor coactivator 3 (Homo sapiens, UniProt P37231); experiment: as §1, with “3 (SRC-3)” for “1 (SRC-1)”, “assays: 1301 (Confirmation screen.), 1048 (Primary screen.)]” for “assays (depositor defined):AID1300, AID1808, AID504735, AID631]”; format: functional
[10] = biological target: Peroxisome proliferator-activated receptor gamma/Nuclear receptor coactivator 2 (Homo sapiens, UniProt P37231); experiment: TR-FRET dose response biochemical High Throughput Screening assay for agonists of the steroid receptor coactivator 2 (SRC-2) recruitment by the peroxisome proliferator-activated receptor gamma (PPAR gamma): non-selective agonists. [Related pubchem assays: 1297, 1032 ]; format: functional
Chain of Peroxisome proliferator-activated receptor gamma/Nuclear receptor coactivator 2 (P37231 whole entry): as the sequence (P37231 whole entry) above
Chain of Peroxisome proliferator-activated receptor gamma/Nuclear receptor coactivator 2 (Q15596 whole entry, further chain): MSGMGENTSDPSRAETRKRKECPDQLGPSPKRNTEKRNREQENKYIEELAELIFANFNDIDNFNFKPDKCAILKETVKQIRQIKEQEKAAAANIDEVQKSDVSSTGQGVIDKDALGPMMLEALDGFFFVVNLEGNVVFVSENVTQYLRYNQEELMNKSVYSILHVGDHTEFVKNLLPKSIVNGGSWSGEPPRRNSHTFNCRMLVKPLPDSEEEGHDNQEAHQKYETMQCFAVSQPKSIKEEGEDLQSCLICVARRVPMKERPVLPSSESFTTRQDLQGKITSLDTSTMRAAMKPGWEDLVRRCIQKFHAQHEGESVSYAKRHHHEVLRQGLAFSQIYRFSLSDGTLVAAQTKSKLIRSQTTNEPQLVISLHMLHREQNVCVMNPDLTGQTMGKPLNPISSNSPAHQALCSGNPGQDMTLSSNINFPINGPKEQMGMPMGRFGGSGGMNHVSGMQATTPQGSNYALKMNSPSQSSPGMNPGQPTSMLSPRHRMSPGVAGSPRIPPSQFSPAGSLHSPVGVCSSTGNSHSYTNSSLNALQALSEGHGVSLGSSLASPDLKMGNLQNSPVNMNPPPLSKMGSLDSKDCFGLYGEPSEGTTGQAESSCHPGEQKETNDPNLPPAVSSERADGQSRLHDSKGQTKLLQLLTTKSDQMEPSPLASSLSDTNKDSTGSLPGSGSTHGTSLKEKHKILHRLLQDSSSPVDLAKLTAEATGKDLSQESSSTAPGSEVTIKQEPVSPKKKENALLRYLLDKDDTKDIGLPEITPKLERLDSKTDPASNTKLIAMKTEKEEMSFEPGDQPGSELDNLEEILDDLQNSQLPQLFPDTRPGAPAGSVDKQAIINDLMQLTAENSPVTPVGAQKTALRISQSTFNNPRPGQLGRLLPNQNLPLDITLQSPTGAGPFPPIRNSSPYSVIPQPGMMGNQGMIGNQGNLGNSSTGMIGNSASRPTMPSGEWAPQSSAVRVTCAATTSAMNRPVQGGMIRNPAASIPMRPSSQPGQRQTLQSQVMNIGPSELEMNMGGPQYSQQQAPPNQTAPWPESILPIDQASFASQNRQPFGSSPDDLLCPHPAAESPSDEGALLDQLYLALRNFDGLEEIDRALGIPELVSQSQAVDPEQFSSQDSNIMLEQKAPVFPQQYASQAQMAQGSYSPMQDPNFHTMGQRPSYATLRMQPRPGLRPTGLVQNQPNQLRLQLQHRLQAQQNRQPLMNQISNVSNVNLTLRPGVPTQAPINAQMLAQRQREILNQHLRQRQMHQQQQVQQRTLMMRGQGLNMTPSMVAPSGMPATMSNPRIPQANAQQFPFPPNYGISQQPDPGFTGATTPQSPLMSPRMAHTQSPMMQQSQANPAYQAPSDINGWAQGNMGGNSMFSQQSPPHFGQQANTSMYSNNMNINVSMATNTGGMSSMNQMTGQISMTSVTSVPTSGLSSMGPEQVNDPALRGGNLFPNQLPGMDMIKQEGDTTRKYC

Vero = experiment: cells; format: functional; conditions: Chlorocebus sabaeus
[11] = biological target: T4, Microphthalmia-associated transcription factor (Homo sapiens, UniProt O75030); experiment: reducers of TRPM1 reporter luminescence, concentration series – cell-based, SK-MEL-5, cherry-picked, set 3, MITF inhibitor project, dose response (AID 493073); format: functional;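 also: SK-MEL-5 melanoma cells with luciferase driven by the MITF target TRPM1 promoter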
T4 sequence (O75030 whole entry): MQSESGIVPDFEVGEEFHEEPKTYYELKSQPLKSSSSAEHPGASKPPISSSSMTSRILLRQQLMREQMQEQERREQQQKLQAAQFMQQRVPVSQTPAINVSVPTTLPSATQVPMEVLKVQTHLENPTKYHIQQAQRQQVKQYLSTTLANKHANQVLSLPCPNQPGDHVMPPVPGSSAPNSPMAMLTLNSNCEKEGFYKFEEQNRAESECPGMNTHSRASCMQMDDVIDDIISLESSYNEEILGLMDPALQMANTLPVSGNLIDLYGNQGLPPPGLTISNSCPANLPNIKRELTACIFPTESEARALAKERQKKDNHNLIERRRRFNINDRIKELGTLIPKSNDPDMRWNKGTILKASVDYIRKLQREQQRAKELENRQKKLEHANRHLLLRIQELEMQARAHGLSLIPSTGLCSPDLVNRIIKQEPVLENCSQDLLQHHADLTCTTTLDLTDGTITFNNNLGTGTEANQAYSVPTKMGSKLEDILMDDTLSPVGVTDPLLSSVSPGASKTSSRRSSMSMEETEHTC

Trypsin = Trypsin (Sus scrofa, UniProt P00761); experiment: trypsin protease activity blockade – biochemical, quenched peptide fluorescence, cherry-pick, selectivity assay for Rce1 protease inhibitor project, dose response (AID 488789)
Chain of Trypsin (P00761 whole entry): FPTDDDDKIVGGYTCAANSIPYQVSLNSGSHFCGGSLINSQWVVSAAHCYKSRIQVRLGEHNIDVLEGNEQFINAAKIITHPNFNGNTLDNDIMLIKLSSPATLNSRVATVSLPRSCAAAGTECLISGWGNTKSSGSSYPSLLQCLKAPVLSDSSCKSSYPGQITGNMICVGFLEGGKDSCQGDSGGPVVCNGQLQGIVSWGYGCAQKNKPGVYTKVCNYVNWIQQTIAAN

[12] = biological target: T5, Voltage-gated N-type calcium channel alpha-1B subunit/Amyloid beta A4 precursor protein-binding family A member 1 (Homo sapiens, UniProt Q00975+Q02410); format: protein assay
[13] = biological target: T5, Voltage-gated N-type calcium channel alpha-1B subunit/Amyloid beta A4 precursor protein-binding family A member 1; format: protein assay; remark: listed apart in the source
Protein skinhead-1 = biological target: T6, Protein skinhead-1 (Caenorhabditis elegans, UniProt P34707); format: functional
T6 sequence (P34707 whole entry): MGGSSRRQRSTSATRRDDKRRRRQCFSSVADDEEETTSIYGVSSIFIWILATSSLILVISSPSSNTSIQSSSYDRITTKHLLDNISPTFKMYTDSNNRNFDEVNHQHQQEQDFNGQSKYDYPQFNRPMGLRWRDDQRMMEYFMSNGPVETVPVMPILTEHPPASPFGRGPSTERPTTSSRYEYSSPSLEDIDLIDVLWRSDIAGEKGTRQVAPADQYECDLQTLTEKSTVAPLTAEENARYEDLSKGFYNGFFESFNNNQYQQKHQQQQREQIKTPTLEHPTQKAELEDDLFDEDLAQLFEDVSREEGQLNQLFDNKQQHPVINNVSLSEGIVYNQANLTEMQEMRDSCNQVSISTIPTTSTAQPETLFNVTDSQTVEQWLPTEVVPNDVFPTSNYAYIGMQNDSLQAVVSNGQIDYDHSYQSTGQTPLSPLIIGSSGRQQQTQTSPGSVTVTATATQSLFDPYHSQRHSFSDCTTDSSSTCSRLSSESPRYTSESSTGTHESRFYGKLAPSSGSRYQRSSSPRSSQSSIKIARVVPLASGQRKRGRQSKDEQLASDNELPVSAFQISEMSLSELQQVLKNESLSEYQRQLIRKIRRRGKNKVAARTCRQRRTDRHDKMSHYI

CC(=O)N1CCc2cc(S(=O)(=O)N3CCN(c4ccc(C#N)cc4)CC3)ccc21
IC50 [1]: 9.24 µM (active) | IC50 (Tumor necrosis factor): 8.79 µM (active) | IC50 [2]: 5.87 µM (active) | IC50 (HEK293): > 20 µM (inactive)

O=C(NCCCN1CCOCC1)C(=O)N/N=C/c1ccccc1O
EC50 [3]: 19.2 µM (active) | IC50 (Nonstructural protein 1): 11.2 µM (active)

CSCCC(C(=O)NC1=NCCS1)N1C(=O)c2ccccc2C1=O (stereo not given)
IC50 (Aminopeptidase N): 17.8 µM (active)

CCOc1ccc2nc(NC(=O)c3cnc(C)cn3)sc2c1
CC50 [4]: > 40 µM (active) | IC50 (cells): 6.53 µM (active) | CC50 [5]: 12.7 µM (active) | CC50 [6]: > 20 µM (active)

N=c1n(CCN2CCCCC2)c2ccccc2n1CC(=O)c1ccc(Cl)c(Cl)c1
CC50 [4]: 18.2 µM (active) | IC50 (cells): 23.9 µM (active) | CC50 [6]: 11.9 µM (active)

CCCOc1ccc(-c2nc3c(c(=O)[nH]c(=O)n3Cc3ccccc3)n2CCO)cc1OCC
AC50 (CAAX prenyl protease 2): 14.5 µM (active)

CCc1ccc(-n2c(SCc3cc(=O)n4cc(Br)ccc4n3)nc3nncc-3c2O)cc1
EC50 [7]: > 79.4 µM (inactive) | CC50 [8]: 17 µM (active) | EC50 [9]: > 79.4 µM (not active) | EC50 [10]: 14.4 µM (not active)

O=C(NCc1ccc2c(c1)OCO2)C1CCCN1C(=O)Nc1cccc(F)c1 (stereo not given)
IC50 (Aminopeptidase N): 75 µM (active)

CCC(=O)N1CCc2cc(S(=O)(=O)N3CCN(c4ccc(Cl)cc4)CC3)ccc21
IC50 [1]: > 20 µM (inactive) | IC50 (Tumor necrosis factor): > 20 µM (inactive) | IC50 [2]: > 20 µM (inactive) | IC50 (HEK293): > 20 µM (inactive)

O=C(Nc1ccccc1N1CCN(C(=O)c2ccccc2)CC1)c1ccc([N+](=O)[O-])o1
CC50 (Vero): 21.6 µM (active) | AC50 [11]: 11.4 µM (active)

O=C1OCCN1C(=O)[C@H]1[C@H](c2ccc(F)cc2)C(c2ccc(F)cc2)=NN1c1ccc(Br)cc1
AC50 (Trypsin): 14.1 µM (active)

Cc1nn(Cc2ccccc2Cl)c(C)c1C(=O)NCCN1C(=O)S/C(=C\c2ccccc2)C1=O
EC50 [7]: > 79.4 µM (inactive) | EC50 [9]: > 79.4 µM (not active) | EC50 [10]: > 79.4 µM (not active)

O=C(O)c1ccc(Nc2nc(-c3cc4ccccc4oc3=O)cs2)cc1O
IC50 (Aminopeptidase N): 9.7 µM (active) | IC50 [12]: > 50 µM (inactive) | IC50 [13]: 7.29 µM (active)

O=C(Nc1ccc([N+](=O)[O-])cc1)c1ccccc1
AC50 [11]: 40.2 µM (active) | IC50 (Protein skinhead-1): > 100 µM (inactive)
